Test [1] deals with rabbit Kv7.1/KCNE1 channels. Further details: method as in PMID 34601592. Conditions: compared between human and rabbit channels; cited from earlier work.
Test [2] concerns human Kv7.1/KCNE1 channels. Further details: method as in PMID 34601592. Conditions: compared between human and rabbit channels; cited from earlier work.
Test [3] relates to TRPV1 channels. Further details: method as in PMID 16467152, PMID 20649563. Conditions: at concentrations as high as 30 µM; cited from earlier work.
For test [4], the target named is T1, human Kv7.1/KCNE1 channel (Homo sapiens, UniProt P51787).
T1 construct: expressed in transfected cells; host or cells: Xenopus laevis oocytes (RNA injection)
Further details: method as in PMID 36796231. The following applies: cited from earlier work.

Test [5] addresses guinea pig Kv7.1/KCNE1 channel (Cavia porcellus, UniProt A6Y9U2). Nature of the test: Two-electrode voltage clamp of Kv7.1/KCNE1 expressed in Xenopus laevis oocytes. The class given is cell-based. The text has this: (§1) Isolation of Xenopus laevis oocytes was approved by the Linköping Animal Care and Use Committee (Permits #1941 and #14515) and conforms to national and international guidelines. All procedures conform to the guidelines from Directive 2010/63/EU of the European Parliament on the protection of animals used for scientific purposes. A total of 30 female adult (minimum 1 year of age) Xenopus laevis animals (from Nasco, WI, USA) underwent surgery to isolate oocytes. The frogs were anaesthetized for 15 minutes in a bath of 1.4 g/L MS-222 Sandoz (Ethyl 3-aminobenzoate methanesulfonate, Sigma Aldrich, Stockholm). The depth of anesthesia was monitored by checking for reflexes when the paws were pinched. A small incision was made on the abdomen to expose lobes of oocytes, which were collected using a surgical scissor. The small incision was closed with suture and local anesthesia (Marcain 5 mg/ml and Xylocain 2%, Distansapoteket, Stockholm) topically applied to relieve pain subsequent to surgery. At the experimental endpoint (in association with the 6th surgery), animals were sacrificed by decapitation under deep anesthesia (which was induced by the bath of 1.4 g/L MS-222 Sandoz). ARRIVE guidelines were followed. Note that experiments were performed on isolated oocytes only (no in vivo experiments were performed). Oocytes were isolated and maintained as previously described. The constructs used had the following accession numbers: human Kv7.1: NM_000218; human KCNE1: NM_000219; guinea pig Kv7.1: NM_001172821.1; guinea pig KCNE1: NM_001172972.1; rabbit Kv7.1: XM_008252197.2; rabbit KCNE1: NM_001109822. Oocytes were injected with RNA for human, guinea pig or rabbit Kv7.1 and KCNE1. The amounts injected were 12.5 ng of human Kv7.1 and 7.5 ng of human KCNE1, 1.25 ng of guinea pig Kv7.1 and 1.25 ng of guinea pig KCNE1, and 0.9 ng of rabbit Kv7.1 and 0.55 ng of rabbit KCNE1. Following injection, the oocytes were generally incubated at 16°C for 1 to 2 days.
(§2) Two-electrode voltage clamp recordings were performed at room temperature using a Dagan CA-1B amplifier (Dagan, MN, USA) or an AxoClamp 900A amplifier (Molecular Devices, CA, USA). All chemicals are from Sigma-Aldrich (Stockholm, Sweden), unless stated otherwise. N-arachidonoyl-L-serine (ARA-S) was bought from Cayman Chemicals (MI, USA) and delivered as a stock solution of 26 mM in EtOH from the supplier. The stock solution was stored at −20°C according to supplier instructions. The control solution contained (in mM): 88 NaCl, 1 KCl, 0.4 CaCl2, 0.8 MgCl2, and 15 HEPES (with pH set to 7.4 using NaOH). For ARA-S experiments, the control solution was supplemented with indicated concentrations of ARA-S. The holding voltage was set to −80 mV. Activation curves were generally generated in steps between −80 and + 60 or +80 mV in increments of 10 mV (5-s duration). The tail voltage was set to −20 or −30 mV. Control solution or ARA-S supplemented solution was continuously perfused into the oocyte chamber at a speed of 1 mL/min using a Minipuls 3 peristaltic pump (Gilson, WI, USA). ARA-S was applied until a stable effect on current amplitude was observed, achieved after approximately 10 minutes, monitored by running an application protocol stepping from a holding voltage of −80 mV to a test voltage of 0 mV every 10 seconds. In the time-matched control experiments for rabbit and guinea pig channels, experiments were performed in a similar way as with ARA-S but with EtOH only; i.e. the first control recording was performed in control solution (no vehicle) and the subsequent recordings done with vehicle only added (i.e. EtOH but no ARA-S). The tubing system and recording chamber were cleaned between cells with 70% EtOH and distilled H2O.
(§3) To quantify the voltage dependence of channel opening, tail currents were measured shortly after stepping to the tail voltage and plotted against the preceding activation voltage. […]
On the technique in general: Two-electrode voltage clamp holds a large cell at a set potential and records current.

The target of test [6] is rabbit Kv7.1/KCNE1 channel (Oryctolagus cuniculus, UniProt Q9MYS6). The description is as above. The class given is cell-based.
rabbit Kv7.1/KCNE1 channel, sequence (Q9MYS6 whole entry): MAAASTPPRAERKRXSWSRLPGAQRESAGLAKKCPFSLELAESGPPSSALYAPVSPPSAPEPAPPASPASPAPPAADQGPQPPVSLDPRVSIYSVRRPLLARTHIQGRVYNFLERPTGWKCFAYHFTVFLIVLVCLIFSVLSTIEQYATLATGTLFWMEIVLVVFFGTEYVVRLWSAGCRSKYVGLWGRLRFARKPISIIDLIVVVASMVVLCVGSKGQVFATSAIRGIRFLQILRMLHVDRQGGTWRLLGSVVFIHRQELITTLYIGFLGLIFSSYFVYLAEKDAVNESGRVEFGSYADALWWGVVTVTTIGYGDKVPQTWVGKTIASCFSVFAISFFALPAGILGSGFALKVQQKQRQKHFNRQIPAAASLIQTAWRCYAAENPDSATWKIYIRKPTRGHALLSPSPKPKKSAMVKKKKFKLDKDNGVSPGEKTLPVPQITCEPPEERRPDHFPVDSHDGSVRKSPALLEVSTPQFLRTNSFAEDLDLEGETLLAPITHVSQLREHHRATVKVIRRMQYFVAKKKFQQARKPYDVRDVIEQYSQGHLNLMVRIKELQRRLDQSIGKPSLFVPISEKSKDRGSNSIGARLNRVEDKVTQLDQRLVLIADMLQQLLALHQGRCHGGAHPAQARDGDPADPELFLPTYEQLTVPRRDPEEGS
rabbit Kv7.1/KCNE1 channel, sequence (Q28705 whole entry partner): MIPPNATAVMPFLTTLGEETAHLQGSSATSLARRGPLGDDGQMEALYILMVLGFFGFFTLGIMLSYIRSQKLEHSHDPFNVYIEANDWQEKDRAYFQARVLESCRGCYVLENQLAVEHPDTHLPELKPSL
Text: as §1, §2, §3

Test [7] deals with T1, human Kv7.1/KCNE1 channel. Described as above. The format is cell-based.
Text: as §1, §2, §3

Test [8] concerns cannabinoid receptor 1 (CB1). Further details: method as in PMID 16467152, PMID 20649563. The following applies: cited from earlier work.
For test [9], the system named is guinea pig heart. Further details: method as in PMID 36796231. The following applies: cited from earlier work.
Test [10] deals with Kv7.1/KCNE1 from all three species. The experiment in a line: Two-electrode voltage clamp, summary over channels from all three species. The class given is cell-based. The following applies: predicted from fits, range over human, guinea pig and rabbit channels.
Text: Isolation of Xenopus laevis oocytes was approved by the Linköping Animal Care and Use Committee (Permits #1941 and #14515) and conforms to national and international guidelines. All procedures conform to the guidelines from Directive 2010/63/EU of the European Parliament on the protection of animals used for scientific purposes. A total of 30 female adult (minimum 1 year of age) Xenopus laevis animals (from Nasco, WI, USA) underwent surgery to isolate oocytes. The frogs were anaesthetized for 15 minutes in a bath of 1.4 g/L MS-222 Sandoz (Ethyl 3-aminobenzoate methanesulfonate, Sigma Aldrich, Stockholm). The depth of anesthesia was monitored by checking for reflexes when the paws were pinched. […]
Two-electrode voltage clamp recordings were performed at room temperature using a Dagan CA-1B amplifier (Dagan, MN, USA) or an AxoClamp 900A amplifier (Molecular Devices, CA, USA). […] ARA-S was applied until a stable effect on current amplitude was observed, achieved after approximately 10 minutes, monitored by running an application protocol stepping from a holding voltage of −80 mV to a test voltage of 0 mV every 10 seconds. […]
as §3

In test [11] the test system is CB2. Further details: method as in PMID 16467152, PMID 20649563. The following applies: at concentrations as high as 30 µM; cited from earlier work.
Test [12] deals with guinea pig-like Kv7.1/KCNE1 channel. Further details: method as in PMID 32223014. Conditions: cited from earlier work.
[13] abbreviates: best fit, 0 mV, read-out: EC50 for current amplitude (Iamp) at 0 mV.
[14] abbreviates: best fit, 20 mV, read-out: EC50 for current amplitude (Iamp) at 20 mV.
Where [15] appears, read: best fit, 40 mV, read-out: EC50 for current amplitude (Iamp) at 40 mV.
Setting [16] is: best fit, 20 mV, read-out: ΔIamp, 20 mV, max.

The structures appear in SMILES notation. Like-named read-outs stand apart in the source and are kept apart here.

For the compound `CC/C=C\C/C=C\C/C=C\C/C=C\C/C=C\C/C=C\CCC(=O)O` [DHA, docosahexaenoic acid], the effects on channel entry in test [1] and in test [2] was “largely comparable activating effects” throughout.

For the compound `CCCCC/C=C\C/C=C\C/C=C\C/C=C\CCCC(=O)NC(CO)C(=O)O` (stereo in doubt) [ARA-S, N-arachidonoyl-L-serine], in [3], the “binding to TRPV1 channels” value is “no detectable binding”. The EC50 was 8900 nM in test [4] (best fit of concentration-response, human data duplicated, read-out: EC50 for the V50 effect); 2000 nM in [4] (setting [13]); 1400 nM in test [4] (setting [14]); 600 nM in test [4] (setting [15]); 5700 nM in test [4] (best fit, human data duplicated, read-out: EC50 for the maximal conductance (GMAX) effect); 6.2 µM in [5] (best fit of concentration-response, n = 5-8, read-out: EC50 for the V50 effect). For the same compound, the EC50 is 4.7 µM in test [5] (setting [13]); 3 µM in [5] (setting [14]); 4.2 µM in [5] (setting [15]); 1.6 µM in [5] (best fit, read-out: EC50 for the maximal conductance (GMAX) effect); 3100 nM in test [6] (best fit of concentration-response, n = 6-7, read-out: EC50 for the V50 effect); 2200 nM in [6] (setting [13]). Moreover, the EC50 in [6] (setting [14]) was 1200 nM; in test [10] (read-out: concentration required to reach 50% of the maximal effect on V50) it was 3 to 9 µM. Moreover, in test [4] (best fit, 0 mV), the “ΔIamp, 0 mV, max” value is reported as “+497%”. Moreover, the “ΔIamp, 20 mV, max” value in test [4] (best fit, 20 mV) was “+197%”. Moreover, the “ΔIamp, 40 mV, max” value in test [4] (best fit, 40 mV) is reported as “+58%”. In addition, the “ΔGMAX, max” value in [4] (best fit, maximal change in GMAX) is listed as “+83%”. Further, the “ΔV50, max” value in test [4] (best fit, maximal shift in V50, human data duplicated) is on record as −79.6 mV; in test [5] (best fit, maximal shift in V50), −70.4 mV; in test [6] (best fit, maximal shift in V50) it was −60.5 mV. Moreover, the Emax was determined as 733% in test [5] (setting [16]); 631% in test [5] (best fit, 40 mV, read-out: ΔIamp, 40 mV, max); 188% in test [5] (best fit, maximal change in GMAX, channel has time-dependent GMAX run-up, read-out: ΔGMAX, max); 515% in test [6] (best fit, 0 mV, read-out: ΔIamp, 0 mV, max); 225% in test [6] (setting [16]). Besides, the “Itailmax;ARA-S” value in test [5] (representative cell, 10 µM ARA-S (Itailmax;ctrl = 4.4 µA)) is recorded as 11.2 µA; in test [6] (representative cell, 10 µM ARA-S (Itailmax;ctrl = 3.7 µA)), 5.7 µA; in test [7] (representative cell, 10 µM ARA-S (Itailmax;ctrl = 6.2 µA)), 10.1 µA. Moreover, the “V50;ARA-S” value is on record as −17.5 mV in [5] (representative cell, 10 µM ARA-S (V50;ctrl = +44.1 mV)); −33.5 mV in [6] (representative cell, 10 µM ARA-S (V50;ctrl = +23.9 mV)); −23.0 mV in test [7] (representative cell, 10 µM ARA-S (V50;ctrl = +30.2 mV)). Moreover, in test [7] (10 µM of ARA-S, n = 5, mean ± sem), the “ARA-S effect on current amplitude at 0 mV reversed upon washout” value worked out at 50 ± 5%. The “binding to cannabinoid receptor 1 (CB1)” value in test [8] was “bind only weakly”. Moreover, the “effect on prolonged QT interval” value in [9] is reported as “reversed”. The “effect on prolonged action potential duration” value in test [9] was “reversed”. Further, the “anticipated maximal effect on V50” value in [10] is listed as −60 to −80 mV. Besides, in [11], the “binding to CB2” value is “no detectable binding”.

In the case of `CCCCC/C=C\C/C=C\CCCCCCCC(=O)NCC(=O)O` [Lin-Gly, linoleoyl glycine], the “effects on channel compared to the human Kv7.1/KCNE1 channel” value in test [12] was “impaired effects”.

Source of the values: paper PMC11520554, “The endocannabinoid ARA-S facilitates the activation of cardiac Kv7.1/KCNE1 channels from different species” (Channels, 2024).
